Measurements: PMC6718736, “Validation of in vitro methods for human cytochrome P450 enzyme induction: Outcome of a multi-laboratory study” (Toxicology in Vitro, 2019)
Entries after “also recorded” stand apart in the source; their conditions may differ. Where two headings read alike, the source gives them in different places.

Tests used:
CYP1A2 [1] = assay: CYP1A2 enzyme induction assay in cryopreserved HepaRG cells (phenacetin probe, LC/MS); assay type: in vitro ADME, human; details: for Assigned classification CYP1A2: HepaRG; as to Assigned classification CYP1A2: key: 1=Positive=inducer; 0=Negative=non-inducer
CYP1A2 [2] = details: cited from earlier work
[3] = cited from earlier work
CYP2B6 [4] = details: cited from earlier work
CYP2B6 [5] = assay: CYP2B6 enzyme induction assay in cryopreserved HepaRG cells (bupropion probe, LC/MS); assay type: in vitro ADME, human; details: for Prediction in vivo inducer: Cmax/F2 >0.5 criterion; for Assigned classification CYP2B6: HepaRG; as to Assigned classification CYP2B6: key: 1=Positive=inducer; 0=Negative=non-inducer
CYP3A4 [6] = details: cited from earlier work
CYP3A4 [7] = assay: CYP3A4 enzyme induction assay in cryopreserved HepaRG cells (midazolam probe, LC/MS); assay type: in vitro ADME, human; details: for Assigned classification CYP3A4: HepaRG; as to Assigned classification CYP3A4: key: 1=Positive=inducer; 0=Negative=non-inducer
CYP = CYP isoforms induced; ref Abadie et al. (2009), Richert et al. (2010), Preissner et al. (2010), Hoffmann et al. (2014); cited from earlier work
CYP3A4 [8] = assay: CYP3A4 enzyme induction assay in cryopreserved primary human hepatocytes (PHH); details: for Assigned classification CYP3A4: PHH
CYP2B6 [9] = assay: CYP2B6 enzyme induction assay in cryopreserved primary human hepatocytes (PHH); assay type: in vitro ADME; details: for Assigned classification CYP2B6: PHH;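 as to Assigned classification CYP2B6: code 1 means positive inducer and 0 means non-inducer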
CYP1A2 [10] = assay: CYP1A2 enzyme induction assay in cryopreserved primary human hepatocytes (PHH); assay type: in vitro ADME; details: for Prediction in vivo inducer: Cmax/F2 >0.5 criterion; for Assigned classification CYP1A2: PHH;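 as to Assigned classification CYP1A2: code 1 means positive inducer and 0 means non-inducer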
[11] = human in vivo, CYP named without remark = induced, ref references in the cell, Washington University database, Hoffmann et al. (2014), Pelkonen et al. (2008), Hukkanen et al. (2012)

NC(=O)N1c2ccccc2C=Cc2ccccc21 [Carbamazepine]
Prediction in vivo inducer (CYP1A2 [1]; CYP1A2, HepaRG cells, Cmax/F2 >0.5 criterion): Yes
F2 (CYP1A2 [1]; CYP1A2, HepaRG cells, in vitro concentration producing 2-fold induction): 56.4 µM
Induction in vitro (CYP1A2 [1]; CYP1A2, HepaRG cells, positive in one batch in each of the three laboratories): Yes
Assigned classification CYP1A2 (CYP1A2 [1]; Lab 1, batch 20): 1
Assigned classification CYP1A2 (CYP1A2 [1]; Lab 1, batch 35): 1
Assigned classification CYP1A2 (CYP1A2 [1]; Lab 1, batch 36): 1
Assigned classification CYP1A2 (CYP1A2 [1]; Lab 2, batch 20): 1
Assigned classification CYP1A2 (CYP1A2 [1]; Lab 2, batch 35): 1
Assigned classification CYP1A2 (CYP1A2 [1]; Lab 2, batch 36): 1
Assigned classification CYP1A2 (CYP1A2 [1]; Lab 3, batch 20): 0
Assigned classification CYP1A2 (CYP1A2 [1]; Lab 3, batch 35): 1
Assigned classification CYP1A2 (CYP1A2 [1]; Lab 3, batch 36): 1
Induction in vivo (CYP1A2 [2]; CYP1A2, human, ref Table 1): Yes
CYP induction in vivo literature reference: CYP1A2 (CYP1A2 [2]; [11]): CYP 1A2
Cmax ([3]; human in vivo plasma concentration, normal dose): 39 µM
Cmax ([3]; human in vivo, normal dose (Table 10)): 39 µM
Induction in vivo (CYP2B6 [4]; CYP2B6, human in vivo reference classification): Yes
Induction in vivo (CYP2B6 [4]; CYP2B6, human, ref Table 1): Yes
CYP induction in vivo literature reference: CYP2B6 (CYP2B6 [4]; [11]): CYP2B6
Prediction in vivo inducer (CYP2B6 [5]; CYP2B6, HepaRG cells): Yes
Prediction in vivo inducer (CYP2B6 [5]; CYP2B6, HepaRG cells, listed as carbamazepine): correctly classified
F2 (CYP2B6 [5]; CYP2B6, HepaRG cells, in vitro concentration producing 2-fold induction): 18.8 µM
Induction in vitro (CYP2B6 [5]; CYP2B6, HepaRG cells, positive in one batch in each of the three laboratories): Yes
Assigned classification CYP2B6 (CYP2B6 [5]; Lab 1, batch 20): 1
Assigned classification CYP2B6 (CYP2B6 [5]; Lab 1, batch 35): 1
Assigned classification CYP2B6 (CYP2B6 [5]; Lab 1, batch 36): 1
Assigned classification CYP2B6 (CYP2B6 [5]; Lab 2, batch 20): 1
Assigned classification CYP2B6 (CYP2B6 [5]; Lab 2, batch 35): 1
Assigned classification CYP2B6 (CYP2B6 [5]; Lab 2, batch 36): 1
Assigned classification CYP2B6 (CYP2B6 [5]; Lab 3, batch 20): 1
Assigned classification CYP2B6 (CYP2B6 [5]; Lab 3, batch 35): 1
Assigned classification CYP2B6 (CYP2B6 [5]; Lab 3, batch 36): 1
Induction in vivo (CYP3A4 [6]; CYP3A4, human in vivo reference classification (Table 11)): Yes
CYP induction in vivo literature reference: CYP3A4 (CYP3A4 [6]; [11]): CYP 3A4
F2 (CYP3A4 [7]; CYP3A4, HepaRG cells): 18.8 µM
Induction in vitro (CYP3A4 [7]; CYP3A4, HepaRG cells): Yes
Prediction in vivo inducer (CYP3A4 [7]; CYP3A4, HepaRG cells): Yes
Assigned classification CYP3A4 (CYP3A4 [7]; Lab 1, batch 20): 1
Assigned classification CYP3A4 (CYP3A4 [7]; Lab 1, batch 35): 1
Assigned classification CYP3A4 (CYP3A4 [7]; Lab 1, batch 36): 0
Assigned classification CYP3A4 (CYP3A4 [7]; Lab 2, batch 20): 1
Assigned classification CYP3A4 (CYP3A4 [7]; Lab 2, batch 35): 1
Assigned classification CYP3A4 (CYP3A4 [7]; Lab 2, batch 36): 1
Assigned classification CYP3A4 (CYP3A4 [7]; Lab 3, batch 20): 1
Assigned classification CYP3A4 (CYP3A4 [7]; Lab 3, batch 35): 1
Assigned classification CYP3A4 (CYP3A4 [7]; Lab 3, batch 36): 1
CYP induction in vitro (human hepatocytes) (CYP): CYP1A2, CYP2B6, CYP3A4
Induction in vitro (CYP3A4 [8]; CYP3A4, PHH): Yes
Prediction in vivo inducer (CYP3A4 [8]; CYP3A4, PHH): Yes
Assigned classification CYP3A4 (CYP3A4 [8]; Lab 1, batch 0 6 A): 1
Assigned classification CYP3A4 (CYP3A4 [8]; Lab 1, batch 4 0 8): 1
Assigned classification CYP3A4 (CYP3A4 [8]; Lab 1, batch 8 0 8): 1
Assigned classification CYP3A4 (CYP3A4 [8]; Lab 2, batch 0 6 A): 1
Assigned classification CYP3A4 (CYP3A4 [8]; Lab 2, batch 4 0 8): 1
Assigned classification CYP3A4 (CYP3A4 [8]; Lab 2, batch 8 0 8): 1
Assigned classification CYP3A4 (CYP3A4 [8]; Lab 3, batch 0 6 A): 1
Assigned classification CYP3A4 (CYP3A4 [8]; Lab 3, batch 4 0 8): 1
Assigned classification CYP3A4 (CYP3A4 [8]; Lab 3, batch 8 0 8): 1
F2 (CYP2B6 [9]; CYP2B6, PHH): 2.09 to 6.27 µM
Induction in vitro (CYP2B6 [9]; CYP2B6, PHH): Yes
Prediction in vivo inducer (CYP2B6 [9]; CYP2B6, PHH): Yes
Prediction in vivo inducer (CYP2B6 [9]; CYP2B6, PHH, Cmax/F2 >0.5 criterion): positive
Assigned classification CYP2B6 (CYP2B6 [9]; Lab 1, batch 0 6 A): 1
Assigned classification CYP2B6 (CYP2B6 [9]; Lab 1, batch 4 0 8): 1
Assigned classification CYP2B6 (CYP2B6 [9]; Lab 1, batch 8 0 8): 0
Assigned classification CYP2B6 (CYP2B6 [9]; Lab 2, batch 0 6 A): 1
Assigned classification CYP2B6 (CYP2B6 [9]; Lab 2, batch 4 0 8): 1
Assigned classification CYP2B6 (CYP2B6 [9]; Lab 2, batch 8 0 8): 0
Assigned classification CYP2B6 (CYP2B6 [9]; Lab 3, batch 0 6 A): 1
Assigned classification CYP2B6 (CYP2B6 [9]; Lab 3, batch 4 0 8): 1
Assigned classification CYP2B6 (CYP2B6 [9]; Lab 3, batch 8 0 8): 0
Prediction in vivo inducer (CYP1A2 [10]; CYP1A2, PHH): No
Prediction in vivo inducer (CYP1A2 [10]; CYP1A2, PHH, listed as carbamazepine): non-inducer; also recorded: missed the in vivo prediction
Induction in vitro (CYP1A2 [10]; CYP1A2, PHH, positive in one donor in each of the three laboratories): No
Assigned classification CYP1A2 (CYP1A2 [10]; Lab 1, batch 0 6 A): 0
Assigned classification CYP1A2 (CYP1A2 [10]; Lab 1, batch 4 0 8): 1
Assigned classification CYP1A2 (CYP1A2 [10]; Lab 1, batch 8 0 8): 0
Assigned classification CYP1A2 (CYP1A2 [10]; Lab 2, batch 0 6 A): 0
Assigned classification CYP1A2 (CYP1A2 [10]; Lab 2, batch 4 0 8): 0
Assigned classification CYP1A2 (CYP1A2 [10]; Lab 2, batch 8 0 8): 0
Assigned classification CYP1A2 (CYP1A2 [10]; Lab 3, batch 0 6 A): 1
Assigned classification CYP1A2 (CYP1A2 [10]; Lab 3, batch 4 0 8): 0
Assigned classification CYP1A2 (CYP1A2 [10]; Lab 3, batch 8 0 8): 0
